The molecules below were run on Setaria faberi (SETFA) (assay: B1 pre-emergence herbicidal activity). Details: Test 1b, rate 1000 g/ha, evaluated after 13 days, score 0-5 (5=total damage, 0=no damage).
Assay type: in vivo
Set-up: key to Pre-emergence herbicidal activity, SETFA: 5=total damage to plant; 0=no damage to plant
Experimental: (§1) Seeds of a variety of test species were sown in standard soil in pots: Triticum aestivium (TRZAW), Avena fatua (AVEFA), Alopecurus myosuroides (ALOMY), Echinochloa crus-galli (ECHCG), Lolium perenne (LOLPE), Zea mays (ZEAMX), Abutilon theophrasti (ABUTH), Amaranthus retroflexus (AMARE) and Setaria faberi (SETFA). After cultivation for one day (pre-emergence) under controlled conditions in a glasshouse (at 24/16° C., day/night; 14 hours light; 65% humidity), the plants were sprayed with an aqueous spray solution derived from the formulation of the technical active ingredient in acetone/water (50:50) solution containing 0.5% Tween 20 (polyoxyethelyene sorbitan monolaurate, CAS RN 9005-64-5). The test plants were then grown in a glasshouse under controlled conditions (at 24/16° C., day/night; 14 hours light; 65% humidity) and watered twice daily. After 13 days, the test was evaluated (5=total damage to plant; 0=no damage to plant).

SMILES	Pre-emergence herbicidal activity, SETFA
CCC(C)OC(=O)Nc1cnc(-c2cncc(F)c2)nc1C(F)(F)F (stereo not drawn) [Compound E18]	5
CCOC(=O)Nc1cnc(-c2cncc(F)c2)nc1C(F)(F)F [Compound E19]	4
CC(C)(C)OC(=O)Nc1cnc(-c2cncc(F)c2)nc1OCc1ccccc1 [Compound E20]	0
COC(=O)Nc1cnc(-c2cncc(F)c2)nc1C(F)(F)F [Compound E21]	4
CC(C)OC(=O)N(C(=O)OC(C)C)c1cnc(-c2cncc(F)c2)nc1C(F)(F)F [Compound E22]	4

Each molecule was assayed on Alopecurus myosuroides (ALOMY) (assay: B1 pre-emergence herbicidal activity). Details: Test 1b, rate 1000 g/ha, evaluated after 13 days, score 0-5 (5=total damage, 0=no damage).
Assay type: in vivo
Set-up: key: 5=total damage to plant; 0=no damage to plant
Experimental: as §1

SMILES	Pre-emergence herbicidal activity, ALOMY
CCC(C)OC(=O)Nc1cnc(-c2cncc(F)c2)nc1C(F)(F)F (stereo not drawn) [Compound E18]	0
CCOC(=O)Nc1cnc(-c2cncc(F)c2)nc1C(F)(F)F [Compound E19]	0
CC(C)(C)OC(=O)Nc1cnc(-c2cncc(F)c2)nc1OCc1ccccc1 [Compound E20]	0
COC(=O)Nc1cnc(-c2cncc(F)c2)nc1C(F)(F)F [Compound E21]	1
CC(C)OC(=O)N(C(=O)OC(C)C)c1cnc(-c2cncc(F)c2)nc1C(F)(F)F [Compound E22]	0

What follows are molecules tested on Avena fatua (AVEFA) (assay: B1 pre-emergence herbicidal activity). Details: Test 1b, rate 1000 g/ha, evaluated after 13 days, score 0-5 (5=total damage, 0=no damage).
Assay type: in vivo
Set-up: key: 5=total damage to plant; 0=no damage to plant
Experimental: as §1

SMILES	Pre-emergence herbicidal activity, AVEFA
CCC(C)OC(=O)Nc1cnc(-c2cncc(F)c2)nc1C(F)(F)F (stereo not drawn) [Compound E18]	1
CCOC(=O)Nc1cnc(-c2cncc(F)c2)nc1C(F)(F)F [Compound E19]	0
CC(C)(C)OC(=O)Nc1cnc(-c2cncc(F)c2)nc1OCc1ccccc1 [Compound E20]	0
COC(=O)Nc1cnc(-c2cncc(F)c2)nc1C(F)(F)F [Compound E21]	0
CC(C)OC(=O)N(C(=O)OC(C)C)c1cnc(-c2cncc(F)c2)nc1C(F)(F)F [Compound E22]	0

Each molecule was assayed on Lolium perenne (LOLPE) (assay: B1 pre-emergence herbicidal activity). Details: Test 1b, rate 1000 g/ha, evaluated after 13 days, score 0-5 (5=total damage, 0=no damage).
Assay type: in vivo
Set-up: key: 5=total damage to plant; 0=no damage to plant
Experimental: as §1

SMILES	Pre-emergence herbicidal activity, LOLPE
CCC(C)OC(=O)Nc1cnc(-c2cncc(F)c2)nc1C(F)(F)F (stereo not drawn) [Compound E18]	0
CCOC(=O)Nc1cnc(-c2cncc(F)c2)nc1C(F)(F)F [Compound E19]	1
CC(C)(C)OC(=O)Nc1cnc(-c2cncc(F)c2)nc1OCc1ccccc1 [Compound E20]	0
COC(=O)Nc1cnc(-c2cncc(F)c2)nc1C(F)(F)F [Compound E21]	0
CC(C)OC(=O)N(C(=O)OC(C)C)c1cnc(-c2cncc(F)c2)nc1C(F)(F)F [Compound E22]	0

What follows are molecules tested on Triticum aestivium (TRZAW) (assay: B1 pre-emergence herbicidal activity). Details: Test 1b, rate 1000 g/ha, evaluated after 13 days, score 0-5 (5=total damage, 0=no damage).
Assay type: in vivo
Set-up: key: 5=total damage to plant; 0=no damage to plant
Experimental: as §1

SMILES	Pre-emergence herbicidal activity, TRAZW
CCC(C)OC(=O)Nc1cnc(-c2cncc(F)c2)nc1C(F)(F)F (stereo not drawn) [Compound E18]	1
CCOC(=O)Nc1cnc(-c2cncc(F)c2)nc1C(F)(F)F [Compound E19]	0
CC(C)(C)OC(=O)Nc1cnc(-c2cncc(F)c2)nc1OCc1ccccc1 [Compound E20]	0
COC(=O)Nc1cnc(-c2cncc(F)c2)nc1C(F)(F)F [Compound E21]	1
CC(C)OC(=O)N(C(=O)OC(C)C)c1cnc(-c2cncc(F)c2)nc1C(F)(F)F [Compound E22]	0

The molecules below were run on Alopecurus myosuroides (ALOMY) (assay: B2 post-emergence herbicidal activity). Details: Test 2b, rate 1000 g/ha, evaluated after 13 days, score 0-5 (5=total damage, 0=no damage).
Assay type: in vivo
Set-up: key: 5=total damage to plant; 0=no damage to plant
Experimental: (§2) Seeds of a variety of test species were sown in standard soil in pots: Triticum aestivium (TRZAW), Avena fatua (AVEFA), Alopecurus myosuroides (ALOMY), Echinochloa crus-galli (ECHCG), Lolium perenne (LOLPE), Zea mays (ZEAMX), Abutilon theophrasti (ABUTH), Amaranthus retroflexus (AMARE) and Setaria faberi (SETFA). After 8 days cultivation (post-emergence) under controlled conditions in a glasshouse (at 24/16° C., day/night; 14 hours light; 65% humidity), the plants were sprayed with an aqueous spray solution derived from the formulation of the technical active ingredient in acetone/water (50:50) solution containing 0.5% Tween 20 (polyoxyethelyene sorbitan monolaurate, CAS RN 9005-64-5). The test plants were then grown in a glasshouse under controlled conditions (at 24/16° C., day/night; 14 hours light; 65% humidity) and watered twice daily. After 13 days, the test was evaluated (5=total damage to plant; 0=no damage to plant).

SMILES	Control of weed species after post-emergence application, ALOMY
CCC(C)OC(=O)Nc1cnc(-c2cncc(F)c2)nc1C(F)(F)F (stereo not drawn) [Compound E18]	0
CCOC(=O)Nc1cnc(-c2cncc(F)c2)nc1C(F)(F)F [Compound E19]	0
CC(C)(C)OC(=O)Nc1cnc(-c2cncc(F)c2)nc1OCc1ccccc1 [Compound E20]	0
COC(=O)Nc1cnc(-c2cncc(F)c2)nc1C(F)(F)F [Compound E21]	1
CC(C)OC(=O)N(C(=O)OC(C)C)c1cnc(-c2cncc(F)c2)nc1C(F)(F)F [Compound E22]	0

Each molecule was assayed on Setaria faberi (SETFA) (assay: B2 post-emergence herbicidal activity). Details: Test 2b, rate 1000 g/ha, evaluated after 13 days, score 0-5 (5=total damage, 0=no damage).
Assay type: in vivo
Set-up: key: 5=total damage to plant; 0=no damage to plant
Experimental: as §2

SMILES	Control of weed species after post-emergence application, SETFA
CCC(C)OC(=O)Nc1cnc(-c2cncc(F)c2)nc1C(F)(F)F (stereo not drawn) [Compound E18]	5
CCOC(=O)Nc1cnc(-c2cncc(F)c2)nc1C(F)(F)F [Compound E19]	5
CC(C)(C)OC(=O)Nc1cnc(-c2cncc(F)c2)nc1OCc1ccccc1 [Compound E20]	1
COC(=O)Nc1cnc(-c2cncc(F)c2)nc1C(F)(F)F [Compound E21]	4
CC(C)OC(=O)N(C(=O)OC(C)C)c1cnc(-c2cncc(F)c2)nc1C(F)(F)F [Compound E22]	1

The molecules below were run on Echinochloa crus-galli (ECHCG) (assay: B2 post-emergence herbicidal activity). Details: Test 2b, rate 1000 g/ha, evaluated after 13 days, score 0-5 (5=total damage, 0=no damage).
Assay type: in vivo
Set-up: key: 5=total damage to plant; 0=no damage to plant
Experimental: as §2

SMILES	Control of weed species after post-emergence application, ECHCG
CCC(C)OC(=O)Nc1cnc(-c2cncc(F)c2)nc1C(F)(F)F (stereo not drawn) [Compound E18]	4
CCOC(=O)Nc1cnc(-c2cncc(F)c2)nc1C(F)(F)F [Compound E19]	5
CC(C)(C)OC(=O)Nc1cnc(-c2cncc(F)c2)nc1OCc1ccccc1 [Compound E20]	0
COC(=O)Nc1cnc(-c2cncc(F)c2)nc1C(F)(F)F [Compound E21]	5
CC(C)OC(=O)N(C(=O)OC(C)C)c1cnc(-c2cncc(F)c2)nc1C(F)(F)F [Compound E22]	5

Each molecule was assayed on Avena fatua (AVEFA) (assay: B2 post-emergence herbicidal activity). Details: Test 2b, rate 1000 g/ha, evaluated after 13 days, score 0-5 (5=total damage, 0=no damage).
Assay type: in vivo
Set-up: key: 5=total damage to plant; 0=no damage to plant
Experimental: as §2

SMILES	Control of weed species after post-emergence application, AVEFA
CCC(C)OC(=O)Nc1cnc(-c2cncc(F)c2)nc1C(F)(F)F (stereo not drawn) [Compound E18]	1
CCOC(=O)Nc1cnc(-c2cncc(F)c2)nc1C(F)(F)F [Compound E19]	3
CC(C)(C)OC(=O)Nc1cnc(-c2cncc(F)c2)nc1OCc1ccccc1 [Compound E20]	0
COC(=O)Nc1cnc(-c2cncc(F)c2)nc1C(F)(F)F [Compound E21]	4
CC(C)OC(=O)N(C(=O)OC(C)C)c1cnc(-c2cncc(F)c2)nc1C(F)(F)F [Compound E22]	0

Each molecule was assayed on Lolium perenne (LOLPE) (assay: B2 post-emergence herbicidal activity). Details: Test 2b, rate 1000 g/ha, evaluated after 13 days, score 0-5 (5=total damage, 0=no damage).
Assay type: in vivo
Set-up: key: 5=total damage to plant; 0=no damage to plant
Experimental: as §2

SMILES	Control of weed species after post-emergence application, LOLPE
CCC(C)OC(=O)Nc1cnc(-c2cncc(F)c2)nc1C(F)(F)F (stereo not drawn) [Compound E18]	1
CCOC(=O)Nc1cnc(-c2cncc(F)c2)nc1C(F)(F)F [Compound E19]	3
CC(C)(C)OC(=O)Nc1cnc(-c2cncc(F)c2)nc1OCc1ccccc1 [Compound E20]	0
COC(=O)Nc1cnc(-c2cncc(F)c2)nc1C(F)(F)F [Compound E21]	2
CC(C)OC(=O)N(C(=O)OC(C)C)c1cnc(-c2cncc(F)c2)nc1C(F)(F)F [Compound E22]	4

The molecules below were run on Triticum aestivium (TRZAW) (assay: B2 post-emergence herbicidal activity). Details: Test 2b, rate 1000 g/ha, evaluated after 13 days, score 0-5 (5=total damage, 0=no damage).
Assay type: in vivo
Set-up: key: 5=total damage to plant; 0=no damage to plant
Experimental: as §2

SMILES	Control of weed species after post-emergence application, TRAZW
CCC(C)OC(=O)Nc1cnc(-c2cncc(F)c2)nc1C(F)(F)F (stereo not drawn) [Compound E18]	0
CCOC(=O)Nc1cnc(-c2cncc(F)c2)nc1C(F)(F)F [Compound E19]	1
CC(C)(C)OC(=O)Nc1cnc(-c2cncc(F)c2)nc1OCc1ccccc1 [Compound E20]	0
COC(=O)Nc1cnc(-c2cncc(F)c2)nc1C(F)(F)F [Compound E21]	1
CC(C)OC(=O)N(C(=O)OC(C)C)c1cnc(-c2cncc(F)c2)nc1C(F)(F)F [Compound E22]	4

Each molecule was assayed on Echinochloa crus-galli (ECHCG) (assay: B1 pre-emergence herbicidal activity). Details: Test 1b, rate 1000 g/ha, evaluated after 13 days, score 0-5 (5=total damage, 0=no damage).
Assay type: in vivo
Set-up: key to Pre-emergence herbicidal activity, ECHCG: 5=total damage to plant; 0=no damage to plant
Experimental: as §1

SMILES	Pre-emergence herbicidal activity, ECHCG
CCC(C)OC(=O)Nc1cnc(-c2cncc(F)c2)nc1C(F)(F)F (stereo not drawn) [Compound E18]	2
CCOC(=O)Nc1cnc(-c2cncc(F)c2)nc1C(F)(F)F [Compound E19]	3
CC(C)(C)OC(=O)Nc1cnc(-c2cncc(F)c2)nc1OCc1ccccc1 [Compound E20]	0
COC(=O)Nc1cnc(-c2cncc(F)c2)nc1C(F)(F)F [Compound E21]	3
CC(C)OC(=O)N(C(=O)OC(C)C)c1cnc(-c2cncc(F)c2)nc1C(F)(F)F [Compound E22]	3
